In one assay the target is T1, TRPV4 channel receptor (Homo sapiens, UniProt Q9HBA0).
T1 construct: expressed in transfected cells; host or cells: HEK cells
Briefly: FLIPR assay using TRPV4 expressing HEK cells. Particulars: FLIPR method; pEC50 = −log10(EC50 μM). It is filed as cell-based. The text has this: Other techniques used to measure TRPV4 channel receptor activation in chondrocytes include, but are not limited to: FLIPR assay, measuring a compound's capability to reduce the amount of ADAMTSs produced and/or released in response to a catabolic stimulus by a cell comprising a TRPV4 channel receptor; measuring a compound's capability to reduce the amount of MMPs produced and/or released in response to a catabolic stimulus by a cell comprising a TRPV4 channel receptor; measuring a compound's capability to effect the amount of nitric oxide (NO) produced in response to a catabolic stimulus by a cell comprising a TRPV4 channel receptor; and measuring a compound's capability to attenuate the inhibition of matrix synthesis in response to a catabolic stimulus by a cell comprising a TRPV4 channel receptor.
(§1) All exemplary compounds of the present invention were assessed using at least one of the biological assays presented above. Compounds presented in the Examples had EC50 values of about 0.01 μM to about 30 μM as measured by Flex Station using bovine articular chondrocytes and pEC50 values between about 4.5 to about 7.0 as measured by FLIPR assay using TRPV4 expressing HEK cells.

The target of the next assay is T2, TRPV4 channel receptors (Bos taurus, UniProt A0A8F4X677).
T2 construct: obtained using this method in bovine articular chondrocytes; endogenous in cells; host or cells: bovine articular chondrocytes
Briefly: Ca2+ influx, Fura-2 fluorescence on FlexStation in bovine articular chondrocytes. Particulars: Fura-2, FlexStation. It is filed as cell-based.
Text: Ca^2+ influx mediated through TRPV4 channel receptors can be measured using articular chondrocytes from such species as, but not limited to, human, rat, canine, rabbit, monkey, and bovine, using standard techniques in the art such as, but not limited to, Fura-2 (Invitrogen/Molecular Probes, Eugene, Oreg.) fluorescence using a FlexStation (manufactured by Molecular Devices, Sunnyvale, Calif.). Table 1 lists biological data for several representative compounds obtained using this method in bovine articular chondrocytes.
as §1

As usually defined, the EC50 is the concentration giving half of the maximal effect. High values mean weaker potency, low ones greater potency.

T2 sequence (A0A8F4X677 1-871): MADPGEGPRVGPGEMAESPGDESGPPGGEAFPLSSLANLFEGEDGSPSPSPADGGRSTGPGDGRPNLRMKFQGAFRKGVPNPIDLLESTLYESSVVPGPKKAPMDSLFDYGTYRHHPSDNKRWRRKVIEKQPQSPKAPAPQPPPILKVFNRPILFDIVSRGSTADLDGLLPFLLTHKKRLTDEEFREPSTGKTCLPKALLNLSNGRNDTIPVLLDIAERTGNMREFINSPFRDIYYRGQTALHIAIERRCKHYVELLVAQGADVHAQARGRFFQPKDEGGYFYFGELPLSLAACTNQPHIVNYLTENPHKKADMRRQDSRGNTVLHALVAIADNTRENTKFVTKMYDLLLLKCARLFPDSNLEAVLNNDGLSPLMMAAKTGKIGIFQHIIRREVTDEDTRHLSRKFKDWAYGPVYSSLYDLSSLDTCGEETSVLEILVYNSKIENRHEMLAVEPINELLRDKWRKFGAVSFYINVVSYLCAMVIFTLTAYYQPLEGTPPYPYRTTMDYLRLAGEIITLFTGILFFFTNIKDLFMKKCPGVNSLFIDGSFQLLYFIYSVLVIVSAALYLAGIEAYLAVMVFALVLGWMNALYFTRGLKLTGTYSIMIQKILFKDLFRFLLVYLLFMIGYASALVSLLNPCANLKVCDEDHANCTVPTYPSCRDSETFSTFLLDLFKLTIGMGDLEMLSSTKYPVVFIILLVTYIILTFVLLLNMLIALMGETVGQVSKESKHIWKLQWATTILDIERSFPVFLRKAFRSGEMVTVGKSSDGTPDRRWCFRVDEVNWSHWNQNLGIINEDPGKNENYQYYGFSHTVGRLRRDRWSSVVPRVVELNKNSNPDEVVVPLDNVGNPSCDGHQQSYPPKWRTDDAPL
T1 sequence (Q9HBA0 whole entry): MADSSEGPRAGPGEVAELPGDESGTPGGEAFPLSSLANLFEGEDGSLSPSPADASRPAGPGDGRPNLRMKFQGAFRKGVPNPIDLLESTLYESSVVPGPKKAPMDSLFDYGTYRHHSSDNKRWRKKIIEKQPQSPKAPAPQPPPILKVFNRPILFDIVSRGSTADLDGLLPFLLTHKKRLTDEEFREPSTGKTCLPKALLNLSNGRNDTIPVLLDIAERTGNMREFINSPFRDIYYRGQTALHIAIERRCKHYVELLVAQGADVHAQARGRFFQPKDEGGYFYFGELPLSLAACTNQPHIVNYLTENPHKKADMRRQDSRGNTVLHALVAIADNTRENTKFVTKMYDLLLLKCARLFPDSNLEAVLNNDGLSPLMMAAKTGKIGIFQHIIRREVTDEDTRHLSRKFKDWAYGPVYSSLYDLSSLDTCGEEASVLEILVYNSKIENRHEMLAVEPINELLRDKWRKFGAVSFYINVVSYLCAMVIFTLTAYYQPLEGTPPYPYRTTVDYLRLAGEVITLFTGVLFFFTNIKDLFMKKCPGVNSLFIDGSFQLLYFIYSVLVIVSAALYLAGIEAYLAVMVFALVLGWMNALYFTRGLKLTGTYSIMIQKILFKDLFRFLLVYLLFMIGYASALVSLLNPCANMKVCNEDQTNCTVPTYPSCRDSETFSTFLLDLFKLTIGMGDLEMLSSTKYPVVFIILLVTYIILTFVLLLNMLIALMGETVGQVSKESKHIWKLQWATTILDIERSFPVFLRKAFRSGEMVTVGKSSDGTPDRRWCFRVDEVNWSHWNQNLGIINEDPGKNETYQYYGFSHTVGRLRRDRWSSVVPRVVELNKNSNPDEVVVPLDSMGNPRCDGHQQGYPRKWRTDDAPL

`CC(C)C[C@H](NC(=O)c1cc2ccccc2s1)C(=O)N[C@@H]1CCCN(S(=O)(=O)c2ccc(Cl)cc2Cl)CC1` [Example 6, N-{(1S)-1-[({(4R)-1-[(2,4-Dichlorophenyl)sulfonyl]hexahydro-1H-azepin-4-yl}amino)carbonyl]-3-methylbutyl}-1-benzothiophene-2-carboxamide] showed a concentration for a half-maximal effect (EC50) at TRPV4 channel receptor of 0.1 to 0.794 µM.

Take `CC(C)C[C@H](NC(=O)c1cc2ccccc2n1C)C(=O)N(C)C1CCCN(S(=O)(=O)c2ccccc2C#N)CC1` (stereo partly drawn) [Example 11, N-((1S)-1-{[{1-[(2-Cyanophenyl)sulfonyl]hexahydro-1H-azepin-4-yl}(methyl)amino]carbonyl}-3-methylbutyl)-1-methyl-1H-indole-2-carboxamide]: the concentration giving a half-maximal response (EC50) at TRPV4 channel receptors was 1.01 to 10 µM; at TRPV4 channel receptor, 1 to 7.94 µM.

At TRPV4 channel receptors, `CC(C)C[C@H](NC(=O)c1cc2ccccc2s1)C(=O)N[C@@H]1CCCN(S(=O)(=O)c2ccc(C#N)cc2)CC1` [Example 8, N-{(1S)-1-[({(4R)-1-[(4-Cyanophenyl)sulfonyl]hexahydro-1H-azepin-4-yl}amino)carbonyl]-3-methylbutyl}-1-benzothiophene-2-carboxamide] registered an EC50 of 10 to 30 µM.

As for `CC(C)C[C@H](NC(=O)c1cc2ccccc2n1C)C(=O)NC1CCCN(S(=O)(=O)c2ccc(Cl)cc2)CC1` (mixture of isomers) [Example 3, 1-Methyl-1H-indole-2-carboxylic acid {(S)-1-[1-(4-chloro-benzenesulfonyl)-azepan-4-ylcarbamoyl]-3-methyl-butyl}-amide], the half-maximal effective concentration (EC50) on TRPV4 channel receptor was 10 to 31.6 µM.

As to `CC(C)C[C@H](NC(=O)c1cc2ccccc2s1)C(=O)N[C@@H]1CCCN(S(=O)(=O)c2ccccc2C#N)CC1` [Example 5, N-{(1S)-1-[({(4R)-1-[(2-cyanophenyl)sulfonyl]hexahydro-1H-azepin-4-yl}amino)carbonyl]-3-methylbutyl}-1-benzothiophene-2-carboxamide], the EC50 on TRPV4 channel receptors lay in the range of 0.14 to 1 µM.

Values taken from patent US20070293477A1, “Novel Compounds” (SMITHKLINE BEECHAM CORPORATION, priority 2004, published 2007).
